Experimental findings from publication PMC6332393, “A Fungal α-Galactosidase from Tricholoma matsutake with Broad Substrate Specificity and Good Hydrolytic Activity on Raffinose Family Oligosaccharides” (Molecules, 2015) are described below.

Assay [1] deals with T1, α-galactosidase TMG.
T1 construct: native, purified from fruiting bodies (Yunnan, China); monomer, 47 kDa by SDS-PAGE and gel filtration; inner peptides by LC-MS/MS GNVMVSLG, LLNMND, INVNDS; not cloned
Nature of the assay: p-nitrophenol release at […] nm; Grafit fit. The settings on record: pH 4.6, 50 °C (standard assay); 1-10 mM substrate; apparent Km; unit Mm [sic]. The assay is classed as biochemical, Tricholoma matsutake.

For assay [2], the system named is T1, α-galactosidase TMG. Description: reducing sugar release ([…],5-dinitrosalicylic acid); Grafit fit. It counts as biochemical, Tricholoma matsutake. To be noted: 100 mM NaAc-HAc pH 4.6, 40 °C; 1-10 mM substrate; apparent Km; unit Mm [sic].

Molecules are shown by their SMILES.

Broadly, the Km is the substrate concentration at which the rate is half of its maximum. Turning to `O=[N+]([O-])c1ccc(O[C@H]2O[C@H](CO)[C@H](O)[C@H](O)[C@H]2O)cc1` [pNPGal, 4-Nitrophenyl α-D-galactopyranoside], the Km with α-galactosidase TMG [1] came out at 0.99 mM.

With `OC[C@H]1O[C@H](OC[C@H]2O[C@H](O[C@]3(CO)O[C@H](CO)[C@@H](O)[C@@H]3O)[C@H](O)[C@@H](O)[C@@H]2O)[C@H](O)[C@@H](O)[C@H]1O` [raffinose], in the assay with α-galactosidase TMG [2], the Km turned out to be 3.7 mM.

`OC[C@H]1O[C@H](OC[C@H]2O[C@H](OC[C@H]3O[C@H](O[C@]4(CO)O[C@H](CO)[C@@H](O)[C@@H]4O)[C@H](O)[C@@H](O)[C@@H]3O)[C@H](O)[C@@H](O)[C@H]2O)[C@H](O)[C@@H](O)[C@H]1O` [stachyose]: the Km in the assay with α-galactosidase TMG [2] turned out to be 3.5 mM.
